Data as given in patent US6822146B2, “Sulfonylurea-tolerant sunflower line M7” (priority 2000, dated 2004).

Experiments:
[1] = test system: H89A × RHA274 (sulfonylurea-susceptible hybrid); experiment: Test G control of volunteer sunflower, H89A × RHA274; assay type: in vivo; conditions: rated 4 weeks after application, scale 0-100
BC2-M3M11 = experiment: Test G control of volunteer sunflower, BC2-M3M11; assay type: in vivo; conditions: rated 4 weeks after application, scale 0-100
BC2-M3M12 = experiment: Test G control of volunteer sunflower, BC2-M3M12; assay type: in vivo; conditions: rated 4 weeks after application, scale 0-100
[2] = test system: mutants originating from M11 and M12; conditions: Test G rates
Excerpt: This test involved sulfonylurea-resistant sunflower progeny BC2-M3M11 and BC2-M3M12, derived from M11 and M12, respectively. Also, a sulfonylurea-susceptible hybrid, H89A×RHA274, was included for comparison. Plants were sprayed with formulated herbicides at the 4-leaf stage. The efficacy of the treatments on the sunflowers was visually rated 4 weeks after application, using a scale where 0 means no control of the sunflowers, 85 means sufficient efficacy level to stop plants from flowering and propagating, and 100 means a complete destruction of the mutants.
Weed control in sugar beet requires 2-3 herbicide applications per season to efficiently control weeds in this slow growing crop.

Chenopodium album = experiment: Test H weed control, field plots; assay type: in vivo; conditions: 36 days after treatment; g a.i./ha: tribenuron-methyl 22.5, metsulfuron-methyl 6, ethametsulfuron-methyl 16, imazapyr isopropylamine salt 15, aclonifen 1200
Excerpt: (§1) Field plots (2 m×5 m) were tilled to remove weed cover and then seeded in rows with the following weeds: Capsella bursa pastoris, Atriplex patula, Chenopodium album, Stellaria media, Mecurialis annua, Polygonum persicaria, Amaranthus retroflexus, Polygonum convolvulus, Polygonum aviculare, Viola arvensis, Matricaria inodora, Anagallis arvensis, Sinapis arvensis, Setaria viridis, Solanum nigrum and Echinochloa crusgalli. After 21 days from sowing, at which time the weeds had reached the 2- to 6-leaf stage, herbicide treatments were applied to the plots according to a complete randomized block design, with each herbicide treatment triply replicated. The herbicides were sprayed using standard flat fan nozzles moved perpendicular to the sown lines using water spray volumes of about 296 L/ha.
(§2) Assessments of weed control were made by visual inspection 36 days after herbicide treatment. A visual rating system was used based on a percentage scale from 0 to 100% compared to an adjacent untreated control plot. On this scale 0 represents no visual differences relative to an untreated control and 100 represents complete control of the given weed species.

Stellaria media = experiment: Test H weed control, field plots; assay type: in vivo; conditions: 36 days after treatment; g a.i./ha: tribenuron-methyl 22.5, metsulfuron-methyl 6, ethametsulfuron-methyl 16, imazapyr isopropylamine salt 15, aclonifen 1200
Excerpt: as §1, §2

Amaranthus retroflexus = experiment: Test H weed control, field plots; assay type: in vivo; parameters: concentration or dose not given beside the values; conditions: 36 days after treatment; g a.i./ha: tribenuron-methyl 22.5, metsulfuron-methyl 6, ethametsulfuron-methyl 16, imazapyr isopropylamine salt 15, aclonifen 1200
Excerpt: as §1, §2

Anagallis arvensis = experiment: Test H weed control, field plots; assay type: in vivo; parameters: concentration or dose not given beside the values; conditions: 36 days after treatment; g a.i./ha: tribenuron-methyl 22.5, metsulfuron-methyl 6, ethametsulfuron-methyl 16, imazapyr isopropylamine salt 15, aclonifen 1200
Excerpt: as §1, §2

Atriplex patula = experiment: Test H weed control, field plots; assay type: in vivo; parameters: concentration or dose not given beside the values; conditions: 36 days after treatment; g a.i./ha: tribenuron-methyl 22.5, metsulfuron-methyl 6, ethametsulfuron-methyl 16, imazapyr isopropylamine salt 15, aclonifen 1200
Excerpt: as §1, §2

Capsella bursa pastoris = experiment: Test H weed control, field plots; assay type: in vivo; parameters: concentration or dose not given beside the values; conditions: 36 days after treatment; g a.i./ha: tribenuron-methyl 22.5, metsulfuron-methyl 6, ethametsulfuron-methyl 16, imazapyr isopropylamine salt 15, aclonifen 1200
Excerpt: as §1, §2

Echinochloa crus-galli = experiment: Test H weed control, field plots; assay type: in vivo; parameters: concentration or dose not given beside the values; conditions: 36 days after treatment; g a.i./ha: tribenuron-methyl 22.5, metsulfuron-methyl 6, ethametsulfuron-methyl 16, imazapyr isopropylamine salt 15, aclonifen 1200
Excerpt: as §1, §2

Matricaria inodora = experiment: Test H weed control, field plots; assay type: in vivo; parameters: concentration or dose not given beside the values; conditions: 36 days after treatment; g a.i./ha: tribenuron-methyl 22.5, metsulfuron-methyl 6, ethametsulfuron-methyl 16, imazapyr isopropylamine salt 15, aclonifen 1200
Excerpt: as §1, §2

Mercurialis annua = experiment: Test H weed control, field plots; assay type: in vivo; parameters: concentration or dose not given beside the values; conditions: 36 days after treatment; g a.i./ha: tribenuron-methyl 22.5, metsulfuron-methyl 6, ethametsulfuron-methyl 16, imazapyr isopropylamine salt 15, aclonifen 1200
Excerpt: as §1, §2

Polygonum aviculare = experiment: Test H weed control, field plots; assay type: in vivo; parameters: concentration or dose not given beside the values; conditions: 36 days after treatment; g a.i./ha: tribenuron-methyl 22.5, metsulfuron-methyl 6, ethametsulfuron-methyl 16, imazapyr isopropylamine salt 15, aclonifen 1200
Excerpt: as §1, §2

Polygonum convolvulus = experiment: Test H weed control, field plots; assay type: in vivo; parameters: concentration or dose not given beside the values; conditions: 36 days after treatment; g a.i./ha: tribenuron-methyl 22.5, metsulfuron-methyl 6, ethametsulfuron-methyl 16, imazapyr isopropylamine salt 15, aclonifen 1200
Excerpt: as §1, §2

Polygonum persicaria = experiment: Test H weed control, field plots; assay type: in vivo; parameters: concentration or dose not given beside the values; conditions: 36 days after treatment; g a.i./ha: tribenuron-methyl 22.5, metsulfuron-methyl 6, ethametsulfuron-methyl 16, imazapyr isopropylamine salt 15, aclonifen 1200
Excerpt: as §1, §2

Setaria viridis = experiment: Test H weed control, field plots; assay type: in vivo; parameters: concentration or dose not given beside the values; conditions: 36 days after treatment; g a.i./ha: tribenuron-methyl 22.5, metsulfuron-methyl 6, ethametsulfuron-methyl 16, imazapyr isopropylamine salt 15, aclonifen 1200
Excerpt: as §1, §2

Sinapis arvensis = experiment: Test H weed control, field plots; assay type: in vivo; parameters: concentration or dose not given beside the values; conditions: 36 days after treatment; g a.i./ha: tribenuron-methyl 22.5, metsulfuron-methyl 6, ethametsulfuron-methyl 16, imazapyr isopropylamine salt 15, aclonifen 1200
Excerpt: as §1, §2

Solanum nigrum = experiment: Test H weed control, field plots; assay type: in vivo; parameters: concentration or dose not given beside the values; conditions: 36 days after treatment; g a.i./ha: tribenuron-methyl 22.5, metsulfuron-methyl 6, ethametsulfuron-methyl 16, imazapyr isopropylamine salt 15, aclonifen 1200
Excerpt: as §1, §2

Viola arvensis = experiment: Test H weed control, field plots; assay type: in vivo; parameters: concentration or dose not given beside the values; conditions: 36 days after treatment; g a.i./ha: tribenuron-methyl 22.5, metsulfuron-methyl 6, ethametsulfuron-methyl 16, imazapyr isopropylamine salt 15, aclonifen 1200
Excerpt: as §1, §2

Structure (SMILES): COC(=O)Nc1cccc(OC(=O)Nc2cccc(C)c2)c1 [Phenmedipham]
- Efficacy on H89A × RHA274 ([1]; 240 g a.i./ha): 0
- Efficacy on BC2-M3M11 (BC2-M3M11; 240 g a.i./ha): 0
- Efficacy on BC2-M3M12 (BC2-M3M12; 240 g a.i./ha): 7
- control of sulfonylurea-susceptible or sulfonylurea-resistant volunteer sunflowers ([2]; phenmedipham alone or combined with triflusulfuron-methyl): ineffective alone

Structure (SMILES): O=C(O)COc1ccc(Cl)cc1Cl [2,4-D, 2,4-dichlorophenoxyacetic acid]
- Efficacy on H89A × RHA274 ([1]; 530 g a.i./ha): 100
- Efficacy on BC2-M3M11 (BC2-M3M11; 530 g a.i./ha): 100
- Efficacy on BC2-M3M12 (BC2-M3M12; 530 g a.i./ha): 100
- efficacy against the mutants [2]: completely-destroyed

Structure (SMILES): Nc1c([N+](=O)[O-])ccc(Oc2ccccc2)c1Cl [Aclonifen, aclonifen]
- weed control, visual rating: Chenopodium album (Chenopodium album): 100%
- weed control, visual rating: Stellaria media (Stellaria media): 100%
- weed control, visual rating: Amaranthus retroflexus (Amaranthus retroflexus): 40%
- weed control, visual rating: Anagallis arvensis (Anagallis arvensis): 100%
- weed control, visual rating: Atriplex patula (Atriplex patula): 0%
- weed control, visual rating: Capsella bursa pastoris (Capsella bursa pastoris): 100%
- weed control, visual rating: Echinochloa crus-galli (Echinochloa crus-galli): 0%
- weed control, visual rating: Matricaria inodora (Matricaria inodora): 0%
- weed control, visual rating: Mercurialis annua (Mercurialis annua): 50%
- weed control, visual rating: Polygonum aviculare (Polygonum aviculare): 30%
- weed control, visual rating: Polygonum convolvulus (Polygonum convolvulus): 23%
- weed control, visual rating: Polygonum persicaria (Polygonum persicaria): 70%
- weed control, visual rating: Setaria viridis (Setaria viridis): 40%
- weed control, visual rating: Sinapis arvensis (Sinapis arvensis): 100%
- weed control, visual rating: Solanum nigrum (Solanum nigrum): 20%
- weed control, visual rating: Viola arvensis (Viola arvensis): 57%
